The term EC50 denotes the concentration that produces a half-maximal response.

Structures are written as SMILES.

The test system of the assay is A. aegypti L1 larvae. As to the kind of experiment: A. aegypti L1 larvae motility dose response assay. The conditions noted are these: Aedes aegypti, 48 h, diluted LB media, 25° C., motility vs DMSO control wells. On the procedure: Efficacy of Compounds Against A. aegypti Mosquitos Compounds were formulated in 100% DMSO are added to microtiter plates containing 180 μl of diluted LB media (Luria-Bertani media is a combination of tryptone, salt and yeast extract). Ten A. aegypti L1 larvae are added and the plates are incubated at 25° C. for 48 h. The efficacy of a compound is determined based on the motility of the larvae as compared to average motility of control wells containing DMSO only. A dose response assay was conducted to determine an EC50 value.
With `O=C(CNC(=O)c1ccc(/C=C/C2=NOC(c3cc(Cl)cc(C(F)(F)F)c3)(C(F)(F)F)C2)c2ccccc12)NCC(F)(F)F` (stereo not shown) [Compound 1, 2-([4-[2-[5-[3-chloro-5-(trifluoromethyl)phenyl]-5-(trifluoromethyl)-4,5-dihydro-1,2-oxazol-3-yl]ethenyl]naphthalen-1-yl]formamido)-N-(2,2,2-trifluoroethyl)acetamide], the EC50 was ≤ 20 µM. Next, `O=C(NCCC(F)(F)F)c1ccc(/C=C/C2=NOC(c3cc(Cl)cc(C(F)(F)F)c3)(C(F)(F)F)C2)n2cncc12` (stereo not shown) [Compound 6, 5-[2-[5-[3-chloro-5-(trifluoromethyl)phenyl]-5-(trifluoromethyl)-4,5-dihydro-1,2-oxazol-3-yl]ethenyl]-N-(3,3,3-trifluoropropyl)imidazo[1,5-a]pyridine-8-carboxamide]: ≤ 20 µM; `O=C(NCCC(F)(F)F)c1ccc(/C=C/C2=NOC(c3cc(Cl)cc(C(F)(F)F)c3)(C(F)(F)F)C2)c2ccccc12` (stereo not shown) [Compound 2, 4-[2-[5-[3-chloro-5-(trifluoromethyl)phenyl]-5-(trifluoromethyl)-4,5-dihydro-1,2-oxazol-3-yl]ethenyl]-N-(3,3,3-trifluoropropyl)naphthalene-1-carboxamide]: ≤ 20 µM; `O=C(CNC(=O)c1ccc(/C=C/C2=NOC(c3cc(Cl)cc(C(F)(F)F)c3)(C(F)(F)F)C2)n2cncc12)NCC(F)(F)F` (stereo not shown) [Compound 5, 2-([5-[2-[5-[3-chloro-5-(trifluoromethyl)phenyl]-5-(trifluoromethyl)-4,5-dihydro-1,2-oxazol-3-yl]ethenyl]imidazo[1,5-a]pyridin-8-yl]formamido)-N-(2,2,2-trifluoroethyl)acetamide]: ≤ 20 µM.
